Entries after “also recorded” stand apart in the source; their conditions may differ.

From patent publication US20150374815A1, “METHODS AND COMPOSITIONS FOR TREATMENT WITH SYNTHETIC NANOCARRIERS AND IMMUNE CHECKPOINT INHIBITORS” (Selecta Biosciences, Inc., priority 2014, published 2015) come the findings set out here.

One assay deals with IL-6. As to the kind of experiment: Serum cytokine induction after NC-CpG or free CpG inoculation (ELISA). It is filed as in vivo. The conditions noted are these: s.c.; 100 μg NC-CpG (containing 5% CpG-1826) or 5 μg free CpG-1826; pooled sera, 3/group; FIG. 4. The procedure: (§1) TNF-α and IL-6 were induced in sera of NC-CpG- and free CpG-inoculated animals. Animal groups were inoculated (s.c.) either with 100 μg of NC-CpG (containing 5% CpG-1826) or with 5 μg of free CpG-1826. At different time-points post inoculation serum was collected from the animals (3/group) by terminal bleed, pooled and assayed for cytokine presence in ELISA (BD).
A general note: In an ELISA, binding on a coated surface is turned into a signal by an enzyme label.

In another assay the test system is TNF-α. Described as above. Format: in vivo. The conditions noted are these: s.c.; 100 μg NC-CpG (containing 5% CpG-1826) or 5 μg free CpG-1826; pooled sera, 3/group; FIG. 4. The procedure:
as §1

As to “5′-TCCATGACGTTCCTGACGTT-3′ [free CpG]”, the “induction of IL-6 in serum” value with IL-6 was “induced; also recorded: substantially higher induction”. Further, the “induction of TNF-α in serum” value in the assay with TNF-α is recorded as “induced; also recorded: substantially higher induction”.
